Results as given in ChEMBL document CHEMBL1201862, “PubChem BioAssay data set” (2004).
The source made the active and inactive calls.

What was measured:
[1] = cytotoxicity toward NIH3T3 fibroblasts, dose response, counter-screen, cell-based, ATP luminescence, mouse fibroblasts (AID 2010); assay type: functional;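 also: cells exposed to compound for about 90 hours before reading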
[2] = biological target: DNA dC->dU-editing enzyme APOBEC-3G (Homo sapiens, UniProt Q9HC16); assay type: functional;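 also: Dose-response counterscreen measuring inhibition of APOBEC3G DNA deaminase activity, run while confirming APOBEC3A inhibitors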
[3] = biological target: DNA dC->dU-editing enzyme APOBEC-3A (Homo sapiens, UniProt P31941); assay: Dose Response confirmation of small molecule APOBEC3A DNA Deaminase Inhibitors via a fluorescence-based single-stranded DNA deaminase assay. [Related pubchem assays (depositor defined):AID493011, AID493024]; assay type: functional
[4] = inhibitors of intracellular T. cruzi replication, confirmation, NIH3T3 host cells, beta-gal luminescence (AID 2044); assay type: functional, cell-based;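 also: intracellular parasites grown in NIH/3T3 mouse fibroblasts as host cells; luminescent beta-galactosidase reporter signal from transgenic T. cruzi replicating inside host cells; inhibitors lower the luminescence signal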
[5] = biological target: Delta-type opioid receptor (Homo sapiens, UniProt P41143); assay: SAR Analysis of Agonists of the DOR Receptor using an Image-Based Assay - Set 3. [Related pubchem assays (depositor defined):AID1777, AID1786]; assay type: functional
[6] = biological target: T1, Kappa-type opioid receptor (Homo sapiens, UniProt P41145); assay: KOR agonist analogs, arrestin-GFP redistribution, SAR follow-up, imaging, image-based, set 3 (AID 488833); assay type: functional
[7] = biological target: T1, Kappa-type opioid receptor; assay: SAR analysis of small molecule agonists of the kappa opioid receptor via a luminescent beta-arrestin assay - Set 3. [Related pubchem assays (depositor defined):AID1777, AID1785, AID1786, AID1966, AID2133, AID2136, AID2284, AID2500]; assay type: functional
Mu-type opioid receptor = Mu-type opioid receptor (Homo sapiens, UniProt P35372); assay: SAR Analysis of Agonists of the MOR Receptor using an Image-Based Assay - Set 3. [Related pubchem assays (depositor defined):AID1777, AID1785, AID1786, AID1966, AID2133, AID2136, AID2284, AID2285, AID2352]; assay type: functional
[8] = biological target: T1, Kappa-type opioid receptor; assay: SAR analysis of small molecule antagonists of the kappa opioid receptor via a luminescent beta-arrestin assay - Set 4. [Related pubchem assays (depositor defined):AID1777, AID1778, AID1785, AID1786, AID1966, AID2133, AID2136, AID2285]; assay type: functional
[9] = biological target: T1, Kappa-type opioid receptor; assay: SAR analysis of small molecule antagonists of the kappa opioid receptor via a luminescent beta-arrestin assay - Set 5. [Related pubchem assays (depositor defined):AID1778, AID1785]; assay type: functional
INS1 = assay: beta cell apoptosis inhibitors, cytokine rescue, dose response, luminescence, retest (AID 449756); assay type: functional, cell-based; conditions: Rattus norvegicus;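 also: cell death triggered by IL-1 beta plus TNF-alpha plus IFN-gamma mixture; protective hits raise ATP signal compared with cytokine alone wells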
[10] = off-target signal loss in HeLa-CEM21 co-culture – HeLa F-luc CTL cells, cherry-picked, counter-screen for HIV-1 Env fusion inhibitor project, dose response (AID 652040); assay type: functional, cell-based;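 also: potency for signal decrease marking cytotoxic or nonspecific inhibition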
[11] = biological target: Intestinal-type alkaline phosphatase (Homo sapiens, UniProt P09923); assay: activation of human intestinal alkaline phosphatase – biochemical, dose response (AID 488873); assay type: functional
[12] = C. albicans growth with fluconazole, confirmation, fluorescence, retest (AID 2467); assay type: functional, cell-based
[13] = ZM109 Env clade C HIV-1 fusion inhibitors, dose response, HeLa effector, CEM target cells, luciferase, cherry-pick (AID 652058); assay type: functional, cell-based
[14] = test system: Streptococcus sp. 'group A'; assay: growth inhibition of control SK(-) GAS strain, dose response, counter-screen for streptokinase expression inhibitor project, luminescence, kanamycin, BacTiterGlo, confirmation (AID 1900); assay type: functional, organism-based
[15] = inhibitors of HIV Env-driven cell fusion, dose response, cherry-pick (AID 652057); assay type: functional, cell-based
BJ [16] = assay: cytotoxicity toward BJ-TERT-LT-ST fibroblasts, dose response, cell-based, RAS-independent, luminescence (AID 1935); assay type: functional; conditions: Homo sapiens;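 also: BJ fibroblasts immortalized with TERT plus LT and ST oncogenes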
[17] = NIH-3T3 fibroblast cytotoxicity, dose response, cytotoxicity control, cell-based, fluorescence, Alamar Blue, secondary assay (AID 2327); assay type: functional;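 also: NIH-3T3 mouse fibroblasts cultured with fluconazole at 8 µg/mL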
[18] = biological target: NACHT, LRR and PYD domains-containing protein 3 (Homo sapiens, UniProt Q96P20); assay: NALP3 inhibitors in yeast, dose response, luminescent (AID 488799); assay type: functional
[19] = microbe, parasite or virus in culture; assay type: functional; conditions: Mycobacterium tuberculosis
[20] = biological target: Serine/threonine-protein phosphatase (Candida dubliniensis (strain CD36 / CBS 7987 / NCPF 3949 / NRRLY-17841) (Yeast), UniProt B9W6M3); assay: calcineurin pathway inhibitors in yeast reporter, dose response, S. cerevisiae, CDRE-lacZ, luminescence, secondary (AID 2388); assay type: functional, cell-based;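 also: yeast reporter cells carrying a calcineurin-responsive lacZ construct stimulated with calcium chloride; luminescent beta-galactosidase reporter signal in whole cells rather than isolated phosphatase activity; potency for inhibition where a drop in reporter signal means calcineurin blockade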
[21] = inhibitors of clade B AD8 Env fusion, dose response, cell-based, cherry-pick (AID 652062); assay type: functional;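 also: luciferase signal from cell-cell fusion driven by HIV-1 clade B AD8 Env; potency is for inhibitors of fusion seen as a drop in luminescence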
cells = assay type: functional, cell-based
[22] = biological target: ATP-dependent molecular chaperone HSP82 (Candida albicans (strain WO-1) (Yeast), UniProt C4YTQ8); assay: loss of DOC-induced GRE-beta-galactosidase reporter signal, dose response, Hsp90 inhibitor project, S. cerevisiae, luminescence (AID 2400); assay type: functional, cell-based;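 also: beta-galactosidase luminescence from glucocorticoid response element reporter as proxy for Hsp90 function; inhibitor potency where signal loss means Hsp90 inhibition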
BJ [23] = assay: cytotoxicity toward Ras-transformed BJeLR fibroblasts, dose response, cell-based, alamar blue fluorescence, cherrypicked samples (AID 2631); assay type: functional; conditions: Homo sapiens;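 also: confirmatory dose-response assay in RAS-dependent BJ fibroblasts engineered with TERT, LT and ST, with cytotoxicity read by fluorescence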
[24] = inhibitors of firefly luciferase expression or activity, dose response, H4 neuroglioma cells, luminescence (AID 1990); assay type: functional, cell-based
[25] = CEM21 lymphoblast cell cytotoxicity, dose response, cytotoxicity control for viral fusion inhibitor project, CellTiter-Glo luminescence, cherry-picked (AID 652042); assay type: functional, cell-based;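 also: potency for signal decrease meaning cytotoxicity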
[26] = biological target: Hepatocyte nuclear factor 4-alpha (Homo sapiens, UniProt P41235); assay type: functional, cell-based;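 also: biochemical luminescence-based dose-response counterscreen measuring inhibition of HNF4 dimerization, run alongside a screen for blockers of ABHD5–perilipin-5 interaction; split luciferase complementation of HNF4 fusion proteins in cell lysate measuring dimerization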
CHO = assay: cytotoxicity in TLR9-MyD88 CHO cells, dose response, cytotoxicity control for TLR9-MyD88 binding inhibitor project, cell-based, luminescence (AID 588339); assay type: functional, hamster; conditions: Cricetulus griseus;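 also: CHO cells stably coexpressing TLR9 and MyD88 fusions from primary screen; compound exposure lasted 48 hours before viability readout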
BJ [27] = assay: cells; assay type: functional, cell-based; conditions: Homo sapiens
[28] = inhibitors of SNCA 5'UTR-driven reporter translation, confirmation, H4 neuroglioma cells, luminescence (AID 1988); assay type: functional, cell-based
BJ [29] = assay: cytotoxicity toward BJ-TERT fibroblasts, dose response, cell-based, RAS-independent, luminescence (AID 1933); assay type: functional; conditions: Homo sapiens
[30] = inhibitors of SNCA 5'UTR-driven translation, confirmation, luminescence, H4 neuroglioblastoma cells, dose confirmation (AID 2454); assay type: functional, cell-based;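 also: H4 neuroglioblastoma cells carrying an alpha-synuclein 5'UTR luciferase reporter; potency for inhibition of the luciferase signal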
Beta Lactamase = Beta Lactamase (Pseudomonas aeruginosa, UniProt Q932Y6); assay: beta-lactamase reporter inhibitor potency, dose response, artefact control for TLR9-MyD88 binding inhibitor project, BLA reporter cells, FRET fluorescence (AID 588341); assay type: cell-based;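 also: cell based assay in CHO-K1 cells stably expressing beta-lactamase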
Streptococcus = assay: Group A Streptococcus viability loss, dose response, counter-screen for streptokinase expression inhibitor project, luminescence, BacTiterGlo (AID 1915); assay type: functional, organism-based;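 also: potency for reduction of bacterial viability or growth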
[31] = biological target: Intestinal-type alkaline phosphatase (Mus musculus, UniProt P24822); assay: mouse intestinal alkaline phosphatase activators, dose response, biochemical, luminescence, uHTS hits (AID 488783); assay type: functional
[32] = cytotoxicity toward DRD oncogenic fibroblasts, dose response, cell-based, non-viral oncogenic, luminescence (AID 1934); assay type: functional; conditions: Homo sapiens
[33] = biological target: Alkaline phosphatase, placental type (Homo sapiens, UniProt P05187); assay: PLAP enzyme inhibitors, confirmation, biochemical, luminescence (AID 1512); assay type: functional
[34] = Luminescence Cell-Based Dose Response HTS to Identify Inhibitors of 5'UTR Stem-Loop Driven Prion Protein mRNA Translation in H4 Neuroglioblastoma Cells. [Related pubchem assays: 1827 (Project Summary), 1813 (Primary HTS)]; assay type: functional
[35] = luciferase reporter signal reduction – luminescence, H4-C neuroglioblastoma cells, dose response (AID 2458); assay type: functional, cell-based;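 also: H4 neuroglioblastoma cells stably carrying a luciferase reporter gene fusion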

T1 sequence (P41145 whole entry): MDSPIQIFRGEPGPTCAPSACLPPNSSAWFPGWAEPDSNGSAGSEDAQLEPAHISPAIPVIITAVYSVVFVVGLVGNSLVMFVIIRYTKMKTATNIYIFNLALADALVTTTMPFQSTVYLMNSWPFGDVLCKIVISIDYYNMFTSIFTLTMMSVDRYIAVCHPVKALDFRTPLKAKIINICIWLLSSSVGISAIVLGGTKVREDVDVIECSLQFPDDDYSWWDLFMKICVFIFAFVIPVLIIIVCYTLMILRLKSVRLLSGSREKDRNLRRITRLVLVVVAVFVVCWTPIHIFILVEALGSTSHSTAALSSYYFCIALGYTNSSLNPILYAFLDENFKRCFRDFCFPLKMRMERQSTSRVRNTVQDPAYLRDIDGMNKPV
Alkaline phosphatase, placental type, sequence (P05187 whole entry): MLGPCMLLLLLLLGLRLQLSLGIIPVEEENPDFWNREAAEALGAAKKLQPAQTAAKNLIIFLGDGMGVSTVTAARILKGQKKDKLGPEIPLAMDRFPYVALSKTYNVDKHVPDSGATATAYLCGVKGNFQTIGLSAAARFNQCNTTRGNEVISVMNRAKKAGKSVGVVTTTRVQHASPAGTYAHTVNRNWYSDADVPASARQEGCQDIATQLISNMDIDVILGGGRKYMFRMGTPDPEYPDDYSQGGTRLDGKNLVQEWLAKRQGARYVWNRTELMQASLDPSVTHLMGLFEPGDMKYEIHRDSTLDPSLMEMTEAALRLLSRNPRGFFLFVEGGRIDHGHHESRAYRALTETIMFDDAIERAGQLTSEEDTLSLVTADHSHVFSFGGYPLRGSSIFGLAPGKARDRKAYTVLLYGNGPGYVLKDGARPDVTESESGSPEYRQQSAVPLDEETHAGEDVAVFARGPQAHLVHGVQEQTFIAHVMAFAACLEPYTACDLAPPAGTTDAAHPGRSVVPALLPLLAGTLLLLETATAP
ATP-dependent molecular chaperone HSP82, sequence (C4YTQ8 whole entry): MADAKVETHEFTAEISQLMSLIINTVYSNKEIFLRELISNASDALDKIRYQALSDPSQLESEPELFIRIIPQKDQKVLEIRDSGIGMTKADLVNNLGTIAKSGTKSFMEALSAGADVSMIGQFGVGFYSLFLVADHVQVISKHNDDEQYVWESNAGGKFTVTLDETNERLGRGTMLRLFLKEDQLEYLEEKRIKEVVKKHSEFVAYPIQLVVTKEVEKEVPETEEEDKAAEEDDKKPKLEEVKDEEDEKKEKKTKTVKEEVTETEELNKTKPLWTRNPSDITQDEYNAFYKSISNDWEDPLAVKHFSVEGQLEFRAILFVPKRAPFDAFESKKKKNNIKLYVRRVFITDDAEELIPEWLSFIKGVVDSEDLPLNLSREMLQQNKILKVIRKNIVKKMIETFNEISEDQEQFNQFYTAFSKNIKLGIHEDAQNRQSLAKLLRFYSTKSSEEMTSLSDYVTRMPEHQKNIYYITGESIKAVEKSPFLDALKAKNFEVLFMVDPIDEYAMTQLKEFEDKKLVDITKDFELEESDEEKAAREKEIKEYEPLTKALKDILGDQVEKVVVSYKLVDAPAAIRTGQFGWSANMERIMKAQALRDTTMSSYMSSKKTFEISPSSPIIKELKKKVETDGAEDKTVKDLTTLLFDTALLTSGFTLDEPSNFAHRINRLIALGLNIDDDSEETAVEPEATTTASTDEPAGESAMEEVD
Beta Lactamase, sequence (Q932Y6 whole entry): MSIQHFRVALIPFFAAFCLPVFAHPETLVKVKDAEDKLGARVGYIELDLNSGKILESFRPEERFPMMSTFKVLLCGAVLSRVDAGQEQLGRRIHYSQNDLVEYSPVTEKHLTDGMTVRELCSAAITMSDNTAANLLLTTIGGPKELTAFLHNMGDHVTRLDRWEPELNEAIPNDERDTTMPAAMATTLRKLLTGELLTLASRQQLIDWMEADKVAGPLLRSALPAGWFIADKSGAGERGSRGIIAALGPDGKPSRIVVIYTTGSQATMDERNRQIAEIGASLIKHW
DNA dC->dU-editing enzyme APOBEC-3A, sequence (P31941 whole entry): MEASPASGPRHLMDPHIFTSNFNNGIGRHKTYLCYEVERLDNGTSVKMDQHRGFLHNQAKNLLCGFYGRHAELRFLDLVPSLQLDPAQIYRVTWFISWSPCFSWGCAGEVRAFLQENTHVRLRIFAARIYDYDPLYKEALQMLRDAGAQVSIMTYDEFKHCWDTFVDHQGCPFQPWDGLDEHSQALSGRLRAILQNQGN
NACHT, LRR and PYD domains-containing protein 3, sequence (Q96P20 whole entry, the tested form may be a part): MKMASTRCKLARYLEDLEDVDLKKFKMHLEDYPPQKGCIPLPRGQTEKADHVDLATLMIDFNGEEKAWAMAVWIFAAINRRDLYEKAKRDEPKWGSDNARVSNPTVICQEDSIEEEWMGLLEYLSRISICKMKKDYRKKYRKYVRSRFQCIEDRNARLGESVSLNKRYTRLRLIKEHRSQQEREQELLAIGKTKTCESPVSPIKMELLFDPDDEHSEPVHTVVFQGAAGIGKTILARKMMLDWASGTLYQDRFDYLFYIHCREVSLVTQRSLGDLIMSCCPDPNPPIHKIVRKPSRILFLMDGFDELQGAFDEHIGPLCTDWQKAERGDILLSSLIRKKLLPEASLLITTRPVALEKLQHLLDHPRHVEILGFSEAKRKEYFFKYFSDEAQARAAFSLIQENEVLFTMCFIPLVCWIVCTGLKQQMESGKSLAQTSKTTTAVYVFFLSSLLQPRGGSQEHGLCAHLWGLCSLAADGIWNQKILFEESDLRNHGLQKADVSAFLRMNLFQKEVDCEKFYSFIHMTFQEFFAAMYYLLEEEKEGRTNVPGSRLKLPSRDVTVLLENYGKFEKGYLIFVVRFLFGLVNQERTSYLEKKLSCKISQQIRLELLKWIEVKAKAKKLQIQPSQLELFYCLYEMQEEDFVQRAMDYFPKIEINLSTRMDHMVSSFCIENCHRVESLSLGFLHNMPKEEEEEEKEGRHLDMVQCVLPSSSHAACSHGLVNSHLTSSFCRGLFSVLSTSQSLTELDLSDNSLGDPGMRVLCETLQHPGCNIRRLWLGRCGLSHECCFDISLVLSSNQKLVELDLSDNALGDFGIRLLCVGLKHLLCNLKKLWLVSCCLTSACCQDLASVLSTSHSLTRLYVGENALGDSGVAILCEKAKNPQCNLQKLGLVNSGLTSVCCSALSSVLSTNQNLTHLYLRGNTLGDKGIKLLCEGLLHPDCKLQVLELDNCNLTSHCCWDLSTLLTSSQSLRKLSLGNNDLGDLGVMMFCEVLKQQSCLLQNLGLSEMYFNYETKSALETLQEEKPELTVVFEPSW
Mu-type opioid receptor, sequence (P35372 whole entry): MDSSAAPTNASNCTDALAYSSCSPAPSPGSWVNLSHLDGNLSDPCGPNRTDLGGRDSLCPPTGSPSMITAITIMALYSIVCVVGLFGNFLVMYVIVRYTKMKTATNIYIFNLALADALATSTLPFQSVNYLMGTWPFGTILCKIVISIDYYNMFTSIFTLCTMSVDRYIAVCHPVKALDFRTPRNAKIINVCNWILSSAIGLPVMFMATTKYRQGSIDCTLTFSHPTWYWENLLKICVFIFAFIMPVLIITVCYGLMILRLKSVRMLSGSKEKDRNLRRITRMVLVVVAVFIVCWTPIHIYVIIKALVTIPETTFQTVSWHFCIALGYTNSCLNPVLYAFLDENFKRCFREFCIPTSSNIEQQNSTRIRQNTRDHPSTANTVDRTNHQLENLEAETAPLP
Intestinal-type alkaline phosphatase (Homo sapiens, UniProt P09923), sequence (P09923 whole entry): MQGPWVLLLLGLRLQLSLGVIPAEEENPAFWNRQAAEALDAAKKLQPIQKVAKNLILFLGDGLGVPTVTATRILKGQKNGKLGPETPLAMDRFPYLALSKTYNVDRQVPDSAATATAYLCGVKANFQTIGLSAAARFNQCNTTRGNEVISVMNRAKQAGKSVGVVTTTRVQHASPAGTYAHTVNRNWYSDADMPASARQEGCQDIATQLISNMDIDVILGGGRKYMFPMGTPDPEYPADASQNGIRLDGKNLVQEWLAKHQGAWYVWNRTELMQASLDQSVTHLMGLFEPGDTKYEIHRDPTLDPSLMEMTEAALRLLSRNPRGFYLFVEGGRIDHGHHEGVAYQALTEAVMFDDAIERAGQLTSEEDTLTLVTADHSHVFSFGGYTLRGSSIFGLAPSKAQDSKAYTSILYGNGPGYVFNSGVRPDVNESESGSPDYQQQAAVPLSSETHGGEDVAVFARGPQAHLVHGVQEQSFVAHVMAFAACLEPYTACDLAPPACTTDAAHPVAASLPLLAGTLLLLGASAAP
Intestinal-type alkaline phosphatase (Mus musculus, UniProt P24822), sequence (P24822 whole entry): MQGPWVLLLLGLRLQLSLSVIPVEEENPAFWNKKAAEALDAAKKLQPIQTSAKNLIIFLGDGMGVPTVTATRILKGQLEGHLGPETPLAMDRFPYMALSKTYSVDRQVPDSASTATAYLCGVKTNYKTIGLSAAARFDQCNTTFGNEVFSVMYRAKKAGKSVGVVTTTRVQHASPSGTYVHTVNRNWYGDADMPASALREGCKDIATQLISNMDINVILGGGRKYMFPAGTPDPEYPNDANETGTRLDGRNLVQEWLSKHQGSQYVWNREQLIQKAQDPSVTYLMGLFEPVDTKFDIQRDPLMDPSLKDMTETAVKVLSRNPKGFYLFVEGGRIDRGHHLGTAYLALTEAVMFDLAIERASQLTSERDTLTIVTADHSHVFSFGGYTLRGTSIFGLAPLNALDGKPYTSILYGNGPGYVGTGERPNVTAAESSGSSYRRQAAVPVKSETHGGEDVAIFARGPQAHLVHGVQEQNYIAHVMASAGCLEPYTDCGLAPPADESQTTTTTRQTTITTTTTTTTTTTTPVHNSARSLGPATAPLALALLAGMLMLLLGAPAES

CCN1CCN(c2ccc(S(=O)(=O)N3CCCCC3)cc2NC(=O)COc2ccc(F)cc2Cl)CC1
EC50 [1]: > 60 µM (not active) | IC50 [2]: 5.24 µM (active) | IC50 [3]: 3.24 µM (active) | EC50 [4]: 474 nM (active)

O=[N+]([O-])c1ccc(CSc2nnc(-c3ccccn3)n2Cc2ccco2)cc1
EC50 [5]: > 64 µM (inactive) | EC50 [6]: 2.35 µM (active) | EC50 [7]: 2.48 µM (active) | EC50 (Mu-type opioid receptor): > 32 µM (inactive)

COc1ccc(CN(CCNC(=O)c2cccc(CNS(=O)(=O)c3ccc(C)cc3)c2)C(C)C)cc1
IC50 [8]: > 20 µM (inactive) | IC50 [9]: 9.03 µM (active)

CCN1/C(=C/C=C/c2oc3ccc(-c4ccccc4)cc3[n+]2CC)Oc2ccc(-c3ccccc3)cc21
AC50 (INS1): 230 nM (active) | AC50 [10]: 6.77 µM (active) | EC50 [11]: 24.2 µM (active) | EC50 [12]: 976 nM (active) | AC50 [13]: 3.77 µM (active) | EC50 [14]: 1.5 µM (active) | AC50 [15]: 1.15 µM (active) | EC50 (BJ [16]): 3.42 µM (inconclusive) | EC50 [17]: 3.16 µM (inconclusive) | IC50 [18]: 9.07 µM (active) | CC50 [19]: 1.56 µM (active) | EC50 [20]: 104 µM (active) | AC50 [21]: 2.55 µM (active) | EC50 (cells): 863 nM (active) | EC50 [22]: 23.6 µM (active) | EC50 (BJ [23]): < 104 nM (active) | EC50 [24]: < 100 nM (active) | AC50 [25]: 1.59 µM (active) | IC50 [26]: 3.88 µM (active) | IC50 (CHO): 1.45 µM (active) | EC50 (BJ [27]): 1.32 µM (inconclusive) | EC50 [28]: < 100 nM (active) | EC50 (BJ [29]): 1.63 µM (inconclusive) | EC50 [30]: 659 nM (active) | IC50 (Beta Lactamase): 10.7 µM (inactive) | EC50 (Streptococcus): 3.89 µM (active) | EC50 [31]: 22.2 µM (active) | EC50 [32]: 1.04 µM (inconclusive) | IC50 [33]: > 100 µM (inactive) | EC50 [34]: < 100 nM (active) | EC50 [35]: 696 nM (active)
